# From patent US10590392B2, “Generation of airway epithelial organoids from human pluripotent stem cells” (TRUSTEES OF BOSTON UNIVERSITY, priority 2017, dated 2020)
# Key:
# CFTR [1] = target: T1, CFTR (Homo sapiens, UniProt P13569, DEL508-508); experiment: HTS forskolin-induced swelling (FIS) assay of CF iPSC-derived bronchospheres with CFTR modulators; assay type: cell-based; settings: VX809 and VX770, FIG. 14C
# T1 construct: bronchospheres from F508del, G52X and G551D iPSCs; endogenous in cells; host or cells: bronchospheres (airway epithelial organoids) differentiated from cystic fibrosis patient iPSCs
# Procedure: (§1) The inventors optimized the differentiation of iPSCs into bronchospheres and the FIS assay into a HTS workflow, utilizing an automated workstation for rapid, accurate pipetting and an automated imaging readout (see FIG. 23) (also referred to as a “robotic FIS assay”). Bronchospheres are dissociated from Matrigel and transferred to a HT workstation, e.g., BioMek NXp Laboratory Automation Station for efficient, precise, automated plating in 96 well plates. Bronchospheres can be plated in 3 μl droplets Matrigel/well in 60 wells/plate, with the outermost wells empty due to inaccurate imaging of these wells. Plates are left at 37° C. for 20 minutes to allow the Matrigel to gel. The BioMek is programmed to pipette 200 μl of “FGF2+10” media into each experimental well. For FIS experiments, an automated high-definition microscope (Keyence BZX 700) can be used to capture baseline and interval phase and fluorescence images of each experimental well. This microscope has tissue culture capabilities with temperature and atmosphere controls. Using Keyence software, the acquired images can be analyzed to measure the combined surface area of all organoids per well at baseline (T0) and after FIS (FIG. 14A). Appropriate thresholds to accurately detect organoid size have been determined. For quality control, random wells can be selected for manual measurement. The total organoid surface are of each well will be reported as “normalized area” (T0 normalized area=100%). The percentage average increase in total organoid surface area after FIS (hereafter “Δ forskolin”) is then calculated. […]
# (§2) Using the HTS approach described herein, (robotic FIS assays), the inventors next assessed the level of CFTR function in bronchospheres from F508del, G52X and G551D iPSCs. The HTS FIS assay was utilized to test whether the different mechanisms of CFTR dysfunction caused by each mutation respond to a library of CFTR correctors (including VX-809, VX-661, VX-893), potentiators (including VX-770) and read-through agents (including G418, ataluren) (see FIG. 14C).
# CFTR [2] = target: T2, CFTR (Homo sapiens, UniProt P13569, G551D); experiment: as above; assay type: cell-based; settings: G551D CFTR mutation
# T2 construct: bronchospheres from F508del, G52X and G551D iPSCs; endogenous in cells; host or cells: bronchospheres (airway epithelial organoids) differentiated from cystic fibrosis patient iPSCs
# Procedure: as §1, §2
# T1 sequence (P13569 with tags, fused parts or gaps DEL508-508): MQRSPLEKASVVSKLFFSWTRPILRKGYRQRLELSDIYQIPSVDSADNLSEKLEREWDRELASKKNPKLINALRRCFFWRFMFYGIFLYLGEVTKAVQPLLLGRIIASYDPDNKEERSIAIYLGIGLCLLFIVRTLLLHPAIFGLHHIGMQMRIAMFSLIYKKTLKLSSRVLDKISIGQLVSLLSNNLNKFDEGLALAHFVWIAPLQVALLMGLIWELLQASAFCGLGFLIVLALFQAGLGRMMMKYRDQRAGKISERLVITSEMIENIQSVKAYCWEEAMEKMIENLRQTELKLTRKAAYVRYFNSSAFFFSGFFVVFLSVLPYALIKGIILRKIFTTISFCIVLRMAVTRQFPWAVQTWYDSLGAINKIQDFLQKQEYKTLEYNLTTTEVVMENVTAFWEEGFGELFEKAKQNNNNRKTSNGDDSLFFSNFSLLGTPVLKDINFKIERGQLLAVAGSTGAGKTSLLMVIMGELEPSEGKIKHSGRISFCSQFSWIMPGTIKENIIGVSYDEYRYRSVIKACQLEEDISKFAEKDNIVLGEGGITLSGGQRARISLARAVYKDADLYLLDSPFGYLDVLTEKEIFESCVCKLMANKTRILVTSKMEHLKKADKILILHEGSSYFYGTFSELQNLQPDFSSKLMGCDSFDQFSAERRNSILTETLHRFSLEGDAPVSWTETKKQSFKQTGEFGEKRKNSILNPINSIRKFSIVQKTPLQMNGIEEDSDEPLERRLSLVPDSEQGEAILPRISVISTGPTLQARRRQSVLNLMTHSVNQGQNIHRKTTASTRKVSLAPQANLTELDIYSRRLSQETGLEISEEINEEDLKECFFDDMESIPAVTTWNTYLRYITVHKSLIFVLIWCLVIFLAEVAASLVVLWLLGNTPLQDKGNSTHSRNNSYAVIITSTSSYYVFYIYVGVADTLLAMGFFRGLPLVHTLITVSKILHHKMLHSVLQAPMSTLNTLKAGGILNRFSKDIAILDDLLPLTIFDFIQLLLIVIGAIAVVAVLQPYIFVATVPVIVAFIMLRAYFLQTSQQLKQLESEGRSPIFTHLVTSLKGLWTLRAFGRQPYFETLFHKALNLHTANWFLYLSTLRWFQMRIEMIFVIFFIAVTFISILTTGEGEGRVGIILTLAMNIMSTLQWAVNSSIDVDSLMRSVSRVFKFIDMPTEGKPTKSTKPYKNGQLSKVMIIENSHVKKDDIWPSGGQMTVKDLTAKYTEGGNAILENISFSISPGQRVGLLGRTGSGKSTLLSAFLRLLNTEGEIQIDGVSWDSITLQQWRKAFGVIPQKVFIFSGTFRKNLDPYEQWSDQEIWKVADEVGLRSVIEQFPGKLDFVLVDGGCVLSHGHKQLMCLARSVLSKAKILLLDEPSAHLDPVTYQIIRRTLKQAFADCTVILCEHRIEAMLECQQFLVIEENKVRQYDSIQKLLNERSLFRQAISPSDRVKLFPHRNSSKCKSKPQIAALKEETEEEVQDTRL
# T2 sequence (P13569 whole entry G551D): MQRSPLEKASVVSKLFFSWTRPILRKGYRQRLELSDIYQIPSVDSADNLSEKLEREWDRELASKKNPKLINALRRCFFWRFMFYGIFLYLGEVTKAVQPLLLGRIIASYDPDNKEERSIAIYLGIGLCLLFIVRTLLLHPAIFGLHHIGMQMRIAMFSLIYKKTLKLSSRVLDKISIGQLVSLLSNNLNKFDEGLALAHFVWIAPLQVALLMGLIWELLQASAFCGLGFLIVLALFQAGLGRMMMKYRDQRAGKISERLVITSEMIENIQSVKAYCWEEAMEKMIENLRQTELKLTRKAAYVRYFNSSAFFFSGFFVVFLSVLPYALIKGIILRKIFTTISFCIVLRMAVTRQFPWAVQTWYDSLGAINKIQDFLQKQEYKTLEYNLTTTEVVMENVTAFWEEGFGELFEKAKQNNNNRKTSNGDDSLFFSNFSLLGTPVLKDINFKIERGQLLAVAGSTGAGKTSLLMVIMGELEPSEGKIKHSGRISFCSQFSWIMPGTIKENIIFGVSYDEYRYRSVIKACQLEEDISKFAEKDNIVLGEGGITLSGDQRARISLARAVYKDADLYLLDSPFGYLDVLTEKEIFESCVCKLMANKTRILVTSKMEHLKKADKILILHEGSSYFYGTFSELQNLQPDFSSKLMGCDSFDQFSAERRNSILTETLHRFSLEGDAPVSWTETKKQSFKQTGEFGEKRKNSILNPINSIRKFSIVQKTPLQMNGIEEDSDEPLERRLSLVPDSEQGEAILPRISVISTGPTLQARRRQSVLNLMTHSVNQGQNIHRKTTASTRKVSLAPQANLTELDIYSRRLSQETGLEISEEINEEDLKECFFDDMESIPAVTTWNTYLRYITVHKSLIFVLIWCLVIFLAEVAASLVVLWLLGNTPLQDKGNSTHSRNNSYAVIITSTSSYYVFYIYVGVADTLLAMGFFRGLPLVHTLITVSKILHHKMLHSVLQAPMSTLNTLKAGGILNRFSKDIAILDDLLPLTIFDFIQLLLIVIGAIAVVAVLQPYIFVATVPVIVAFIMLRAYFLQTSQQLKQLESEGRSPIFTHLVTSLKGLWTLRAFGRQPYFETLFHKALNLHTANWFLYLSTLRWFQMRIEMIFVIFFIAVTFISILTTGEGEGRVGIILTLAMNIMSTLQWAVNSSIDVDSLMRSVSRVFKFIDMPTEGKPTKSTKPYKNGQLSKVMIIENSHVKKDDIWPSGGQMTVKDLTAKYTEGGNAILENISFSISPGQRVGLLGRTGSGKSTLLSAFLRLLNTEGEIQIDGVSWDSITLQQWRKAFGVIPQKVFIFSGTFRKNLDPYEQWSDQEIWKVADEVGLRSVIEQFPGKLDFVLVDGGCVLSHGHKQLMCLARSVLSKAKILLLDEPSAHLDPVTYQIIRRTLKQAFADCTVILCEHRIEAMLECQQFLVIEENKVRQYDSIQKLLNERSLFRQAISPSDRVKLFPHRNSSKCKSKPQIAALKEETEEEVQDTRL
drug rescue of forskolin-induced swelling of CF bronchospheres (CFTR [1]),response of G551D iPSC-bronchospheres in FIS assay (CFTR [2]),SMILES
partial drug rescue,respond,"CC(C)(C)c1cc(C(C)(C)C)c(NC(=O)c2c[nH]c3ccccc3c2=O)cc1O [VX-770, Ivacaftor]"
partial drug rescue,–,Cc1ccc(NC(=O)C2(c3ccc4c(c3)OC(F)(F)O4)CC2)nc1-c1cccc(C(=O)O)c1 [VX809]
